# Experimental data as given in PubChem BioAssay (NCI).
#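 48-hour exposure; five concentrations; linearly interpolated endpoints. TGI marks complete inhibition of growth.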
# Columns and labels:
# Experiment in all cases: inhibition of tumour cell growth, NCI panel, 48 h
# [1] = tested on: PC-3 prostate
# [2] = tested on: MALME-3M melanoma
# [3] = tested on: HOP-62 NSCLC
# [4] = tested on: HCC-2998 colon
# [5] = tested on: 786-0 renal
# [6] = tested on: UACC-257 melanoma
# [7] = tested on: ACHN renal
# [8] = tested on: DU-145 prostate
# [9] = tested on: MDA-N
# [10] = tested on: COLO 205 colon
# [11] = tested on: K-562 leukemia
# [12] = tested on: SR leukemia
# [13] = tested on: MCF7 breast
# [14] = tested on: SF-539 CNS
# [15] = tested on: BT-549 breast
# [16] = tested on: NCI/ADR-RES ovarian
# [17] = tested on: TK-10 renal
# [18] = tested on: T-47D breast
# [19] = tested on: SK-MEL-5 melanoma
# [20] = tested on: NCI-H460 lung
# [21] = tested on: HCT-15 colon
# [22] = tested on: SW-620 colon
# [23] = tested on: MOLT-4 leukemia
# [24] = tested on: RPMI-8226 leukemia
# [25] = tested on: NCI-H522 lung
# [26] = tested on: A549 NSCLC
# [27] = tested on: SK-MEL-2 melanoma
# [28] = tested on: NCI-H23 lung
# [29] = tested on: HOP-92 NSCLC
# [30] = tested on: SF-295 CNS
# [31] = tested on: SK-OV-3 ovarian
# [32] = tested on: CCRF-CEM leukemia
# [33] = tested on: UO-31 renal
# [34] = tested on: RXF 393 renal
# [35] = tested on: CAKI-1 renal
# [36] = tested on: SF-268 CNS
# [37] = tested on: HT29 colon
# [38] = tested on: OVCAR-3 ovarian
# [39] = tested on: SN12C renal
# [40] = tested on: SNB-19 CNS
# [41] = tested on: NCI-H226 lung
# [42] = tested on: OVCAR-4 ovarian
# [43] = tested on: HL-60(TB) leukemia
# [44] = tested on: OVCAR-8 ovarian
# [45] = tested on: LOX IMVI melanoma
# [46] = tested on: HS 578T breast
# [47] = tested on: OVCAR-5 ovarian
# [48] = tested on: U251 CNS
# [49] = tested on: SK-MEL-28 melanoma
# [50] = tested on: EKVX NSCLC
# [51] = tested on: MDA-MB-435
# [52] = tested on: IGROV1 ovarian
# [53] = tested on: HCT-116 colon
# [54] = tested on: SNB-75 CNS
# [55] = tested on: UACC-62 melanoma
# [56] = tested on: M14 melanoma
# [57] = tested on: MDA-MB-231 breast
# [58] = tested on: KM12 colon
# [59] = tested on: A498 renal
smiles,measurement,setting,value
COc1ccc(C[C@H]2COC(=O)[C@@H]2Cc2ccc(Br)cc2)cc1OC,TGI,[1],52.1 µM
same,TGI,[2],> 89.5 µM
same,TGI,[3],> 100 µM
same,TGI,[4],> 100 µM
same,TGI,[5],> 100 µM
same,TGI,[6],74.6 µM
same,TGI,[7],> 100 µM
same,TGI,[8],> 84.3 µM
same,TGI,[9],> 100 µM
same,TGI,[10],39.5 µM
same,TGI,[11],> 72 µM
same,TGI,[12],> 94 µM
same,TGI,[13],> 65.4 µM
same,TGI,[14],> 100 µM
same,TGI,[15],84.2 µM
same,TGI,[16],> 100 µM
same,TGI,[17],> 94.2 µM
same,TGI,[18],> 100 µM
same,TGI,[19],17.2 µM
same,TGI,[20],> 100 µM
same,TGI,[21],> 100 µM
same,TGI,[22],> 100 µM
same,TGI,[23],61.8 µM
same,TGI,[24],> 100 µM
same,TGI,[25],> 71.1 µM
same,TGI,[26],> 100 µM
same,TGI,[27],51.8 µM
same,TGI,[28],> 100 µM
same,TGI,[29],79.5 µM
same,TGI,[30],> 74.3 µM
same,TGI,[31],> 100 µM
same,TGI,[32],> 100 µM
same,TGI,[33],24.2 µM
same,TGI,[34],> 62.8 µM
same,TGI,[35],> 84 µM
same,TGI,[36],> 31.6 µM
same,TGI,[37],> 100 µM
same,TGI,[38],> 100 µM
same,TGI,[39],> 100 µM
same,TGI,[40],> 61.8 µM
same,TGI,[41],> 85.4 µM
same,TGI,[42],> 100 µM
same,TGI,[43],> 61.6 µM
same,TGI,[44],> 100 µM
same,TGI,[45],37.8 µM
same,TGI,[46],> 90.9 µM
same,TGI,[47],> 100 µM
same,TGI,[48],> 100 µM
same,TGI,[49],> 100 µM
same,TGI,[50],56.5 µM
same,TGI,[51],55.7 µM
same,TGI,[52],> 92.4 µM
same,TGI,[53],> 89.7 µM
same,TGI,[54],85.1 µM
same,TGI,[55],96.8 µM
same,TGI,[56],> 89.5 µM
same,TGI,[57],77.2 µM
same,TGI,[58],> 75.2 µM
COc1cccc(CCn2c(N)c(-c3cc(Cl)cc(Cl)c3)c3ccc([N+](=O)[O-])cc3c2=O)c1,TGI,[1],> 61.9 µM
same,TGI,[2],32.6 µM
same,TGI,[3],> 100 µM
same,TGI,[4],> 31.6 µM
same,TGI,[5],> 100 µM
same,TGI,[6],24.4 µM
same,TGI,[7],22.5 µM
same,TGI,[8],> 25.3 µM
same,TGI,[9],> 100 µM
same,TGI,[10],4.05 µM
same,TGI,[11],4.28 µM
same,TGI,[12],> 64.8 µM
same,TGI,[13],89.2 µM
same,TGI,[14],> 100 µM
same,TGI,[15],> 59.5 µM
same,TGI,[16],> 55 µM
same,TGI,[17],> 100 µM
same,TGI,[18],> 24.8 µM
same,TGI,[19],9.07 µM
same,TGI,[20],> 30.8 µM
same,TGI,[21],> 44.5 µM
same,TGI,[22],> 100 µM
same,TGI,[23],> 100 µM
same,TGI,[24],3.02 µM
same,TGI,[25],> 26.6 µM
same,TGI,[26],> 100 µM
same,TGI,[27],> 31.4 µM
same,TGI,[28],5.99 µM
same,TGI,[29],7.93 µM
same,TGI,[30],> 100 µM
same,TGI,[31],> 100 µM
same,TGI,[33],25.5 µM
same,TGI,[35],41.7 µM
same,TGI,[36],> 100 µM
same,TGI,[37],> 100 µM
same,TGI,[38],> 100 µM
same,TGI,[39],> 86.7 µM
same,TGI,[40],> 44 µM
same,TGI,[41],> 53.5 µM
same,TGI,[42],> 100 µM
same,TGI,[43],5.37 µM
same,TGI,[59],> 28.8 µM
same,TGI,[44],> 100 µM
same,TGI,[45],> 56.1 µM
same,TGI,[46],> 38 µM
same,TGI,[47],> 100 µM
same,TGI,[48],> 49.3 µM
same,TGI,[49],> 100 µM
same,TGI,[50],> 100 µM
same,TGI,[51],> 100 µM
same,TGI,[52],22.7 µM
same,TGI,[53],12.7 µM
same,TGI,[54],> 100 µM
same,TGI,[55],> 100 µM
same,TGI,[56],> 100 µM
same,TGI,[57],61.1 µM
same,TGI,[58],> 100 µM
